One block for each compound: values may come before it. Activity calls are given as the source filed them.
Tests used:
Cytochrome P450 3A4 = Cytochrome P450 3A4 (Homo sapiens, UniProt P08684);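 also: CYP3A4 tested as one member of a cytochrome P450 panel screen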
Cytochrome P450 2C19 = Cytochrome P450 2C19 (Homo sapiens, UniProt P33261); experiment: Cytochrome panel assay with activity outcomes. Panel member name: p450-cyp2c19 Compounds with AC50 equal or less than 10 uM are considered active; format: functional; conditions: read-out: AC50
Sequence of Cytochrome P450 2C19 (P33261 whole entry): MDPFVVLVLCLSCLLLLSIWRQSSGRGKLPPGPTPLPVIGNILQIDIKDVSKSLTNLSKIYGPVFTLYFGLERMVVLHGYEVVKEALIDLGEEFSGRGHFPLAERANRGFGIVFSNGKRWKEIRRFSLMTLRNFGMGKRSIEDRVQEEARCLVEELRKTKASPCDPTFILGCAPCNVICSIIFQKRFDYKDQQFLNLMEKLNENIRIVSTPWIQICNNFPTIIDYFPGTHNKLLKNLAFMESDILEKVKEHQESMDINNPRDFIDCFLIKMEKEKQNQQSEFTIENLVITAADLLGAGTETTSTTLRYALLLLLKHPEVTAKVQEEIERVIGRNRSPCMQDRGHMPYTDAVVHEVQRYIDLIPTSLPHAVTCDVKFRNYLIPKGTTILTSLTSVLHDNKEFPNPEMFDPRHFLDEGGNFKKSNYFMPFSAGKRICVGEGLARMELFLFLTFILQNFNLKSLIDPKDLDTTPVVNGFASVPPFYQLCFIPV

Cytochrome P450 1A2 = biological target: T1, Cytochrome P450 1A2 (Homo sapiens, UniProt P05177);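 also: PubChem cytochrome P450 panel assay, CYP1A2 panel member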
T1 sequence (P05177 whole entry): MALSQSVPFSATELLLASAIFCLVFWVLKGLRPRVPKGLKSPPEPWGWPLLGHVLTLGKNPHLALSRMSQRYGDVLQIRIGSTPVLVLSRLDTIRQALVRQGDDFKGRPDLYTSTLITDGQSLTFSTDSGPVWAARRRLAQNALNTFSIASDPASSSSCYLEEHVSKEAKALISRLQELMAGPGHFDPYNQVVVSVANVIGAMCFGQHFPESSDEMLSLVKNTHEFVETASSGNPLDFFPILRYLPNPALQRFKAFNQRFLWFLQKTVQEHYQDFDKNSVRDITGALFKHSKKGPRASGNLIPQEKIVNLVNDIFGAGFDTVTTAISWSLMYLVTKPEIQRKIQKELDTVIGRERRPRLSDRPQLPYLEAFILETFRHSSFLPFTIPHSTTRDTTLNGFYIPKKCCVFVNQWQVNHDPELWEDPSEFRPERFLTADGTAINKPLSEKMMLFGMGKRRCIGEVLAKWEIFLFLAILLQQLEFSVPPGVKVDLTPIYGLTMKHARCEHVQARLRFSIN

[1] = biological target: T2, Rac GTPase-activating protein 1 (Homo sapiens, UniProt Q9H0H5); experiment: MgcRacGAP GTPase-activating activity inhibitors, confirmation, biochemical, ADP Hunter fluorescence, primary and confirmatory (AID 624330); format: functional
T2 sequence (Q9H0H5 whole entry): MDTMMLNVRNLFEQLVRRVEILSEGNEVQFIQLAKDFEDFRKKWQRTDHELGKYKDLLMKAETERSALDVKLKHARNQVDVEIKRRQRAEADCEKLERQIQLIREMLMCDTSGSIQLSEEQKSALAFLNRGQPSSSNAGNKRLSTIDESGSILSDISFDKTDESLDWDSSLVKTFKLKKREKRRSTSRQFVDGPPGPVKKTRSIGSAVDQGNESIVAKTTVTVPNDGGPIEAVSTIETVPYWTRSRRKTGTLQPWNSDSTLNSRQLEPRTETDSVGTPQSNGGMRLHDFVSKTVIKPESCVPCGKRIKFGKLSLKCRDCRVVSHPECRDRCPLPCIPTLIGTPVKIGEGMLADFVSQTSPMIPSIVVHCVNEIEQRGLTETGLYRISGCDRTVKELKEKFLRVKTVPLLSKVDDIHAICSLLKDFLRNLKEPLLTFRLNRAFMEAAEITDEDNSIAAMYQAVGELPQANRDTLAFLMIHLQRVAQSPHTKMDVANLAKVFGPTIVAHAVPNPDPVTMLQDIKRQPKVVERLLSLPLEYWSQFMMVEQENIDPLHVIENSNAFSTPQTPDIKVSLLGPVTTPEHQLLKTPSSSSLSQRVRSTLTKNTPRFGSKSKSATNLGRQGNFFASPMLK

[2] = Luminescence Cell-Based Dose Retest to Confirm Inhibitors of Cancer Stem Cells. [Related pubchem assays (depositor defined):AID2717, AID2721]; format: functional; conditions: Homo sapiens
[3] = cytotoxicity toward NIH3T3 fibroblasts, dose response, counter-screen, cell-based, ATP luminescence, mouse fibroblasts (AID 2010); format: functional;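 also: cells exposed to compound for about 90 hours before reading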
[4] = inhibitors of intracellular T. cruzi replication, confirmation, NIH3T3 host cells, beta-gal luminescence (AID 2044); format: functional, cell-based;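 also: intracellular parasites grown in NIH/3T3 mouse fibroblasts as host cells; luminescent beta-galactosidase reporter signal from transgenic T. cruzi replicating inside host cells; inhibitors lower the luminescence signal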
Cytochrome P450 2C9 = Cytochrome P450 2C9 (Homo sapiens, UniProt P11712)
Sequence of Cytochrome P450 2C9 (P11712 whole entry): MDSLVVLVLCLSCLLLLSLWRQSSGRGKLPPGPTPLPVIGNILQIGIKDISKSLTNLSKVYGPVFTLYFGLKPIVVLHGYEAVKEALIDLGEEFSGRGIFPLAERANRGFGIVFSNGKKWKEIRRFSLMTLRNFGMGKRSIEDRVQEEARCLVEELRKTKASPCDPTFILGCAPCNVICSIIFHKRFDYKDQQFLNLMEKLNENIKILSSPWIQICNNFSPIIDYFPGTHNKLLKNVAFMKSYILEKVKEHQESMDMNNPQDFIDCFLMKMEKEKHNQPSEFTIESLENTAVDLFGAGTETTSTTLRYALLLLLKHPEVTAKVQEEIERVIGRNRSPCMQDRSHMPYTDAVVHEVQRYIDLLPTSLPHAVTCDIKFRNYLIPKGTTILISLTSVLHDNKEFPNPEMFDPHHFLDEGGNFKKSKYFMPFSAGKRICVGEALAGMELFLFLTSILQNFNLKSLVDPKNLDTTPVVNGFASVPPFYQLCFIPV

Sequence of Cytochrome P450 3A4 (P08684 whole entry): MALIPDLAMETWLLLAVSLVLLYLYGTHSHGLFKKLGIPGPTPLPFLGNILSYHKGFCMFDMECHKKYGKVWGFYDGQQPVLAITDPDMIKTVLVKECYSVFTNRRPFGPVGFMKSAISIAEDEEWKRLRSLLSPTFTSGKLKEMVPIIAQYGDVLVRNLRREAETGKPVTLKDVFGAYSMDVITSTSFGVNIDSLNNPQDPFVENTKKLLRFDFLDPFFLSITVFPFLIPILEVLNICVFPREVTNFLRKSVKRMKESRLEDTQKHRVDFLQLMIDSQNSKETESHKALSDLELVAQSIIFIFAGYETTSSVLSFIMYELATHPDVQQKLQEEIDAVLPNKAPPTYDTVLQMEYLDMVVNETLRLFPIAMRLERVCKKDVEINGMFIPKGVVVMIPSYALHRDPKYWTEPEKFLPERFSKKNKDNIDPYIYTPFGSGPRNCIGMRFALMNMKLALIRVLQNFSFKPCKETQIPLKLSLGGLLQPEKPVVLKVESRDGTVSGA

AC50 (Cytochrome P450 3A4): 35.5 µM (inconclusive)
Structure (SMILES): CC(=O)Nc1ccc(Nc2ncnc3c2cnn3-c2ccccc2)cc1

AC50 (Cytochrome P450 3A4): 12.6 µM (inconclusive)
AC50 (Cytochrome P450 2C19): 316 nM (inconclusive)
Structure (SMILES): CC(=O)Nc1cc(C(F)(F)F)ccc1Oc1cccc(Br)c1

AC50 (Cytochrome P450 3A4): 7.08 µM (inconclusive)
Structure (SMILES): O=C1CN(c2nc(-c3ccccc3)c3cc(Br)ccc3n2)c2ccccc2N1

AC50 (Cytochrome P450 3A4): 10 µM (inconclusive)
Structure (SMILES): CCCC/C=C/C(NC(=O)c1ccc(C(F)(F)F)cc1)c1ccccc1 (stereo unspecified)

AC50 (Cytochrome P450 3A4): 4.47 µM (inconclusive)
Structure (SMILES): O=C(Nc1ccccc1C(=O)NCC1CCCO1)c1ccc(Cl)cc1Cl (stereo unspecified)

AC50 (Cytochrome P450 2C9): 5.01 µM (inconclusive)
Structure (SMILES): Cc1ccc(S(=O)(=O)CCCS(=O)(=O)c2ccc(C)cc2)cc1

AC50 (Cytochrome P450 1A2): 17.8 µM (inconclusive)
Structure (SMILES): Cc1ccc(C(=O)C(OC(=O)CCC(=O)Nc2cccc(C)c2)c2ccccc2)cc1 (stereo unspecified)

AC50 (Cytochrome P450 2C9): 6.31 µM (inconclusive)
Structure (SMILES): COc1ccc(-n2nc3cc(C)c(NC(=S)NC(=O)c4ccccc4C)cc3n2)cc1

AC50 (Cytochrome P450 3A4): 15.8 µM (inconclusive)
Structure (SMILES): COc1ccc(NC(=O)N2CC3(CCN(S(=O)(=O)c4ccccc4)CC3)C2)cc1

AC50 (Cytochrome P450 2C9): 0.398 µM (inconclusive)
Structure (SMILES): c1cncc(CNc2nc(-c3ccc4c(c3)OCO4)nc3ccccc23)c1

The next lines start with the compound.

Structure (SMILES): CN(CCC(=O)O)S(=O)(=O)c1ccccc1
AC50 (Cytochrome P450 1A2): 3.16 µM (inconclusive)

Structure (SMILES): COc1ccc(NC2CCCN(C(=O)c3ccc(CSC)o3)C2)cc1OC (stereo unspecified)
IC50 [1]: 109 µM (active)

Structure (SMILES): Nc1c(C(O)(C(F)(F)F)C(F)(F)F)cc(C(O)(C(F)(F)F)C(F)(F)F)c2ccccc12
AC50 [2]: 2.46 µM (active)

Structure (SMILES): OC(CN1CCN(c2ccccn2)CC1)Cn1c2ccc(Cl)cc2c2cc(Cl)ccc21 (stereo unspecified)
AC50 [2]: 3.21 µM (active)

Structure (SMILES): CC(=O)Nc1ccc(S(=O)(=O)c2ccc([N+](=O)[O-])cc2)cc1
EC50 [3]: > 60 µM (not active)
EC50 [4]: 661 nM (active)

Structure (SMILES): O=C(NCC(c1ccco1)N1CCCC1)c1ccccc1Sc1ccc(C(F)(F)F)cc1[N+](=O)[O-] (stereo unspecified)
EC50 [3]: > 60 µM (not active)
EC50 [4]: 1640 nM (active)

Structure (SMILES): COc1ccc(Oc2ncc3ncc(=O)n(C4CC4)c3n2)cc1
AC50 (Cytochrome P450 3A4): 25.1 µM (inconclusive)
AC50 (Cytochrome P450 2C19): 316 nM (inconclusive)
AC50 (Cytochrome P450 2C9): 25.1 µM (inconclusive)

Structure (SMILES): O=[N+]([O-])c1ccc(CNCCc2ccccc2)cc1
EC50 [3]: > 60 µM (not active)
EC50 [4]: 528 nM (active)

Structure (SMILES): CCCCN1CSC(=S)N(Cc2ccccc2)C1
AC50 (Cytochrome P450 3A4): 3.16 µM (inconclusive)
AC50 (Cytochrome P450 2C9): 7.94 µM (inconclusive)

Structure (SMILES): O=c1c2c(-c3ccc(Cl)cc3)csc2nc2n1CCC2
AC50 (Cytochrome P450 3A4): 12.6 µM (inconclusive)

Structure (SMILES): Oc1cc(C(F)(F)F)nc2c(OC(F)(F)F)cccc12
AC50 [2]: 22.4 µM (active)

Structure (SMILES): N#Cc1ccccc1S(=O)(=O)N1CCN(C(=O)Cc2coc3cc(O)ccc23)CC1
IC50 [1]: 32.6 µM (active)

Structure (SMILES): O=C(O)/C(=C\c1ccncc1)c1cccc2ccccc12
AC50 (Cytochrome P450 2C9): 3.16 µM (inconclusive)

Structure (SMILES): CC(=O)Nc1ccc(OCC(O)CN2CCN(c3ccc(C)c(Cl)c3)CC2)cc1 (stereo unspecified)
AC50 [2]: 7.01 µM (active)

Structure (SMILES): CCOC(=O)c1c(O)nc(O)c(CC)c1C
AC50 (Cytochrome P450 2C19): 2510 nM (inconclusive)

Structure (SMILES): O=C(Nc1cccc2ccccc12)c1ccc([N+](=O)[O-])s1
EC50 [3]: > 60 µM (not active)
EC50 [4]: 407 nM (active)

Structure (SMILES): COCCn1c(=S)[nH]c2cc(C(=O)NC(C)C)ccc2c1=O
AC50 (Cytochrome P450 1A2): 3.16 µM (inconclusive)

Structure (SMILES): NC(S)=Nc1cc2ccccc2c2ccccc12
AC50 (Cytochrome P450 2C9): 0.282 µM (inconclusive)

Structure (SMILES): O=C(c1ccco1)N1CCN(C(=O)C2(S(=O)(=O)c3ccc(Cl)cc3)CC2)CC1
AC50 (Cytochrome P450 3A4): 25.1 µM (inconclusive)
AC50 (Cytochrome P450 2C19): 28200 nM (inconclusive)
AC50 (Cytochrome P450 2C9): 17.8 µM (inconclusive)

Structure (SMILES): CC(C)c1nc2sc3ccccc3c(=O)c2c(=O)n1Cc1ccccc1
AC50 [2]: 0.796 µM (active)

Structure (SMILES): CC(=O)[C@@H]1CC[C@@H]2[C@@H]3C[C@H](C)C4=CC(=O)CC[C@@]4(C)[C@H]3[C@H](O)C[C@]21C
AC50 (Cytochrome P450 3A4): 7.94 µM (inconclusive)
